Test results as given in the supplement of paper PMC4862054.

Experiments:
HDQ-P1 [1] = assay: normalised viability (% of control), CellTiter-Blue; higher = more viable cells (about 100 = DMSO control); conditions: incubation time: 72 h
Description: (§1)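 DSRT, CellTiter-Blue viability, 72 h incubation. Signal is normalised to DMSO and benzethonium chloride controls. Value is the normalised response at dose 9.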

DU-4475 [2] = assay: as above; conditions: incubation time: 72 h
Description: as §1

CAL-51 [3] = assay: as above; conditions: incubation time: 72 h
Description: as §1

MDA-MB-453 [4] = assay: as above; conditions: incubation time: 72 h
Description: as §1

CAL-85-1 [5] = assay: as above; conditions: incubation time: 72 h
Description: as §1

CAL-148 [6] = assay: as above; conditions: incubation time: 72 h
Description: as §1

HCC1937 = assay: normalised viability (% of control), CellTiter-Blue; higher = more viable cells (about 100 = DMSO control); conditions: incubation time: 72 h
How it was run: (§2)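 Vehicle (100) and a positive kill control (0) anchored the normalisation of each plate, and Z'-factor was used for quality control. Breast cancer cell lines in 20 µl suspension were incubated 72 h over compound in 5 µl medium in 384-well plates, followed by CellTiter-Blue at 560/590 nm. The value is normalised viability at a single listed concentration of the series.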

HCC1143 = assay: as above; conditions: incubation time: 72 h
How it was run: as §2

HDQ-P1 [7] = assay: as above; conditions: incubation time: 72 h; remark: listed apart in the source
How it was run: as §2

SK-BR-3 = assay: as above; conditions: incubation time: 72 h
How it was run: as §2

MDA-MB-468 [8] = assay: as above; conditions: incubation time: 72 h
How it was run: as §2

BT-474 [9] = assay: as above; conditions: incubation time: 72 h
How it was run: as §2

DU-4475 [10] = assay: as above; conditions: incubation time: 72 h; remark: listed apart in the source
How it was run: as §2

BT-549 = assay: as above; conditions: incubation time: 72 h
How it was run: as §2

CAL-51 [11] = assay: as above; conditions: incubation time: 72 h; remark: listed apart in the source
How it was run: as §2

MFM-223 = assay: as above; conditions: incubation time: 72 h
How it was run: as §2

Hs578T = assay: as above; conditions: incubation time: 72 h
How it was run: as §2

CAL-120 = assay: as above; conditions: incubation time: 72 h
How it was run: as §2

MDA-MB-231 = assay: as above; conditions: incubation time: 72 h
How it was run: as §2

MDA-MB-453 [12] = assay: as above; conditions: incubation time: 72 h; remark: listed apart in the source
How it was run: as §2

CAL-85-1 [13] = assay: as above; conditions: incubation time: 72 h; remark: listed apart in the source
How it was run: as §2

CAL-148 [14] = assay: as above; conditions: incubation time: 72 h; remark: listed apart in the source
How it was run: as §2

MDA-MB-468 [15] = conditions: 72 h
How it was run: (§3)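 Breast cancer cell lines (20 µl suspension) were seeded into 384-well plates holding compound at 5 concentrations in 10-fold steps over a compound-specific 10,000-fold range, then incubated 72 h. Cell death was read first by CellTox Green fluorescence (485/520 nm), then viability by CellTiter-Glo luminescence after 10 min at room temperature. Each plate was normalised to 0.1 % DMSO and a positive kill control. EC50 was fitted from the dose-response curves and censored at the top concentration.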

HDQ-P1 [16] = conditions: 72 h
How it was run: as §3

BT-474 [17] = conditions: 72 h
How it was run: as §3

Cn1cc(C2=Nc3cc(NC(=O)C(N)C4CCCCC4)cc4c3C2=CNNC4=O)cn1 (stereo unspecified) (10000 nM)
normalised viability (HDQ-P1 [1]): 35.2%
normalised viability (DU-4475 [2]): 41.9%
normalised viability (CAL-51 [3]): 30%
normalised viability (MDA-MB-453 [4]): 16.3%
normalised viability (CAL-85-1 [5]): 48.9%
normalised viability (CAL-148 [6]): 28.1%

Cc1sc2c(c1C)C(c1ccc(Cl)cc1)=N[C@@H](CC(=O)OC(C)(C)C)c1nnc(C)n1-2 [(+)JQ1] (10000 nM)
normalised viability (HDQ-P1 [1]): 108%
normalised viability (DU-4475 [2]): 1.08%
normalised viability (CAL-51 [3]): 68.3%
normalised viability (MDA-MB-453 [4]): 18.3%
normalised viability (CAL-85-1 [5]): 44.4%
normalised viability (CAL-148 [6]): 27.6%

CC1(C)CNc2cc(NC(=O)c3cccnc3NCc3ccncc3)ccc21 [Motesanib]
normalised viability (HCC1937; 10 nM): 104%
normalised viability (HCC1937; 1000 nM): 91.5%
normalised viability (HCC1937; 10000 nM): 88.5%
normalised viability (HCC1143; 10 nM): 79.9%
normalised viability (HCC1143; 1000 nM): 82.4%
normalised viability (HCC1143; 10000 nM): 70.4%
normalised viability (HDQ-P1 [7]; 3 nM): 76.7%
normalised viability (HDQ-P1 [7]; 30 nM): 95.1%
normalised viability (HDQ-P1 [7]; 100 nM): 86.6%
normalised viability (SK-BR-3; 10 nM): 83.3%
normalised viability (SK-BR-3; 1000 nM): 88.9%
normalised viability (SK-BR-3; 10000 nM): 78.9%
normalised viability (MDA-MB-468 [8]; 10 nM): 88.3%
normalised viability (MDA-MB-468 [8]; 1000 nM): 85.3%
normalised viability (MDA-MB-468 [8]; 10000 nM): 88.2%
normalised viability (BT-474 [9]; 10 nM): 109%
normalised viability (BT-474 [9]; 1000 nM): 101%
normalised viability (BT-474 [9]; 10000 nM): 103%
normalised viability (DU-4475 [10]; 3 nM): 85.6%
normalised viability (DU-4475 [10]; 30 nM): 79.6%
normalised viability (DU-4475 [10]; 100 nM): 83.9%
normalised viability (BT-549; 10 nM): 79.1%
normalised viability (BT-549; 1000 nM): 93.5%
normalised viability (BT-549; 10000 nM): 79.2%
normalised viability (CAL-51 [11]; 3 nM): 109%
normalised viability (CAL-51 [11]; 30 nM): 110%
normalised viability (CAL-51 [11]; 100 nM): 97.2%
normalised viability (MFM-223; 10 nM): 80.8%
normalised viability (MFM-223; 1000 nM): 76.4%
normalised viability (MFM-223; 10000 nM): 83.2%
normalised viability (Hs578T; 10 nM): 104%
normalised viability (Hs578T; 1000 nM): 95.5%
normalised viability (Hs578T; 10000 nM): 95.7%
normalised viability (CAL-120; 10 nM): 74.4%
normalised viability (CAL-120; 1000 nM): 78.3%
normalised viability (CAL-120; 10000 nM): 82.4%
normalised viability (MDA-MB-231; 10 nM): 69.8%
normalised viability (MDA-MB-231; 1000 nM): 77.3%
normalised viability (MDA-MB-231; 10000 nM): 72.8%
normalised viability (MDA-MB-453 [12]; 3 nM): 96.1%
normalised viability (MDA-MB-453 [12]; 30 nM): 71.3%
normalised viability (MDA-MB-453 [12]; 100 nM): 69.6%
normalised viability (CAL-85-1 [13]; 3 nM): 83.1%
normalised viability (CAL-85-1 [13]; 30 nM): 80.9%
normalised viability (CAL-85-1 [13]; 100 nM): 85.3%
normalised viability (CAL-148 [14]; 3 nM): 94.8%
normalised viability (CAL-148 [14]; 30 nM): 83.7%
normalised viability (CAL-148 [14]; 100 nM): 90.7%
EC50, CellTiter-Glo (MDA-MB-468 [15]): > 10000 nM

CC1=C2C[C@H]3[C@@H](CC=C4C[C@@H](O)CC[C@@]43C)[C@@H]2CC[C@]12O[C@@H]1C[C@H](C)CN[C@H]1[C@H]2C [Cyclopamine] (10000 nM)
normalised viability (HDQ-P1 [1]): 148%
normalised viability (DU-4475 [2]): 107%
normalised viability (CAL-51 [3]): 102%
normalised viability (MDA-MB-453 [4]): 119%
normalised viability (CAL-85-1 [5]): 94.8%
normalised viability (CAL-148 [6]): 116%

CC[C@@H]1C(=O)OC[C@@H]1Cc1cncn1C [Pilocarpine] (40000 nM)
normalised viability (HDQ-P1 [1]): 135%
normalised viability (DU-4475 [2]): 68.7%
normalised viability (CAL-51 [3]): 84.5%
normalised viability (MDA-MB-453 [4]): 43.7%
normalised viability (CAL-85-1 [5]): 64.4%
normalised viability (CAL-148 [6]): 73.2%

COc1cc(F)c(F)c(Nc2ccc(I)cc2F)c1NS(=O)(=O)C1(C[C@H](O)CO)CC1 [Refametinib]
EC50, CellTiter-Glo (HDQ-P1 [16]): 119 nM
EC50, CellTiter-Glo (MDA-MB-468 [15]): 2240 nM
EC50, CellTiter-Glo (BT-474 [17]): 644 nM
